The test system of one series is Plasmodia. The conditions noted are these: cited from earlier work.
Series [1] addresses T1, rhodesain (Trypanosoma brucei rhodesiense, UniProt Q95PM0). The series is described as follows: rhodesain dilution assay (reversibility). Type of series: biochemical. The conditions noted are these: preincubated 1 h with 10 fold IC50, then diluted 100 fold. The protocol:
In order to study the inhibition mechanism of plakortide E, enzyme assays with various inhibitor and substrate concentrations were performed with cathepsin B to determine whether the inhibition is competitive with respect to the substrate. The IC50 values for cathepsin B were determined at three different substrate concentrations (50, 100, 200 μM). […] Therefore, we determined the time-dependency of inhibition by measuring IC50 values in correlation to incubation time of enzyme with the inhibitor added, prior to substrate addition. […] To address whether the inhibition is reversible or irreversible, further kinetic studies were performed as described by Copeland [19]. Dilution assays were performed and compared with K11777 [20], an irreversible vinylsulfone-based inhibitor of rhodesain. The enzyme rhodesain (100 fold concentration as used in the normal enzyme assays) was preincubated with the 10 fold IC50 concentration of the compound for one hour, which allows the formation of enzyme-inhibitor complexes and leads to total block of enzyme activity. […] In case of irreversible inhibition, dissociation of the complex cannot occur and no enzyme activity will be detected. […] This indicates a reversible inhibition by plakortide E. In summary, plakortide E was determined to be a non-competitive, reversible, inhibitor of cysteine proteases, in case of rhodesain slow-binding was observed.

Another series concerns the target cathepsin B (Homo sapiens, UniProt P07858). The series is described as follows: cathepsin B enzyme assay. It is filed as biochemical.
The target in a further series is cathepsin L (Homo sapiens, UniProt P07711). Description: cathepsin L enzyme assay. Type of series: biochemical.
Sequence of cathepsin L (P07711 114-333): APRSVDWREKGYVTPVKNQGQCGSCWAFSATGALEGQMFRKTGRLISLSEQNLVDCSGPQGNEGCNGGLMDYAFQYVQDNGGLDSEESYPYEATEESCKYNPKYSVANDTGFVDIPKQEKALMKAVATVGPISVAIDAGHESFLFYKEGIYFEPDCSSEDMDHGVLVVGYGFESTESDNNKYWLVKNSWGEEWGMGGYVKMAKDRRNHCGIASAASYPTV
For series [2], the target named is T1, rhodesain. The series is described as follows: rhodesain enzyme assay. Type of series: biochemical.
Another series deals with SARS PLpro. Type of series: biochemical, SARS coronavirus. The note with it: at 100 μg/mL (285.71 μM).
For series [3], the system named is trypomastigote forms of Trypanosoma brucei. The series is described as follows: parasite growth assay against T. brucei. The note with it: read-out: trypanocidal activity IC50. Type of series: cell-based.
The test system of series [4] is Leishmania major promastigotes. The series is described as follows: assay on L. major promastigotes. Type of series: cell-based.
The test system of the next series is Candida albicans. The series is described as follows: assay on C. albicans. Type of series: cell-based.
The test system of another series is J774.1 macrophages. The note with it: at 100 μM.
In series [5] the test system is sarcoplasmic reticulum (SR) Ca2+ ATPase. On the set-up: method as in doi:10.1016/0040-4020(95)00856-X. The note with it: cited from earlier work.

Several values for one entry are separate records, joined by “and”; a condition that tells them apart may be missing. Identical values can stand only once. Like-named read-outs stand apart in the source and are kept apart here.

T1 sequence (Q95PM0 entry or part of it): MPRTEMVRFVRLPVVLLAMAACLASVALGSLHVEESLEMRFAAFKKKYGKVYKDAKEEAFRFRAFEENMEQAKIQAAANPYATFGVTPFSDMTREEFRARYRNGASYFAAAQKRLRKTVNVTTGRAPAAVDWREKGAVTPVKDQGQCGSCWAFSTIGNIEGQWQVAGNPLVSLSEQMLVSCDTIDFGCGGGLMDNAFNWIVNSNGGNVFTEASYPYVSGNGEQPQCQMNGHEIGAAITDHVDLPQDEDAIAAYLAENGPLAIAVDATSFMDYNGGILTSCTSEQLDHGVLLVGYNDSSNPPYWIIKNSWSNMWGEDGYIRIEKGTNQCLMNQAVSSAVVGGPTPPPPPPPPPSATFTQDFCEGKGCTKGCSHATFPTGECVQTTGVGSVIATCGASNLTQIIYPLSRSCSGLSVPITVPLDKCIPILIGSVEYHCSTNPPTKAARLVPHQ

For the molecule `CC/C=C/C(CC)C[C@@]1(C)C[C@@H](CC)[C@H](CC(=O)OC)OO1` (stereo partly shown) [3-epiplakortin], in the series on Plasmodia, the “activity against Plasmodia” value was “active”.

As for `CN1CCN(C(=O)N[C@@H](Cc2ccccc2)C(=O)N[C@H](/C=C/S(=O)(=O)c2ccccc2)CCc2ccccc2)CC1` [K11777, reference compound], at rhodesain [1], the “reactivation of the enzyme (enzyme activity after dilution)” value is given as “no enzyme activity was detected”.

Broadly, the IC50 is the midpoint of a concentration-inhibition curve. Turning to `CC/C=C/[C@H](CC)C/C(C)=C/[C@@]1(CC)C[C@](/C=C/C(=O)O)(CC)OO1` [plakortide E], the “inhibition mechanism, cathepsin B” value against cathepsin B (IC50 at three substrate concentrations) is listed as “non-competitive inhibition”. Further, the “inhibition of cathepsin B” value at cathepsin B (at 100 μg/mL (285.71 μM)) is given as “Inhibition”. For the same molecule, the IC50 against cathepsin B (substrate concentration 50 μM) was 82.7 µM and 82 µM; at cathepsin B (substrate concentration 100 μM), 74.2 µM and 73 µM; against cathepsin B (substrate concentration 200 μM) it was 103 µM; at cathepsin L ([S] = 6.25 μM), 106 µM and 105 µM; at rhodesain [2] (5 min incubation of enzyme with inhibitor prior to substrate addition, read-out: IC50 rhodesain, time-dependency (converted)) it was 257 µM; on rhodesain [2] (30 min incubation of enzyme with inhibitor prior to substrate addition, read-out: IC50 rhodesain, time-dependency (converted)) it was 205 µM. For the same molecule, the IC50 was 77 µM at rhodesain [2] (60 min incubation of enzyme with inhibitor prior to substrate addition, read-out: IC50 rhodesain, time-dependency (converted)); 124 µM and 126 µM on rhodesain [2] ([S] = 30.0 μM, read-out: IC50 rhodesain (converted)); 5 µM in series [3] (after 48 h); 5 µM in series [3] (after 72 h). Also, at cathepsin L (at 100 μg/mL (285.71 μM)), the “inhibition of cathepsin L” value is reported as “Inhibition”. For the same molecule, the inhibition of rhodesain result against rhodesain [2] (at 100 μg/mL (285.71 μM)) is “Inhibition”. Also, the “inhibition mechanism, rhodesain” value on rhodesain [2] (enzyme kinetic studies) is given as “non-competitive, slowly-binding, reversible inhibitor”. In addition, the “reactivation of the enzyme (enzyme activity after dilution)” value on rhodesain [1] is “about 50%”. Further, the “inhibition of SARS PLpro” value with SARS PLpro is listed as “Inhibition”. Also, the “activity against Leishmania” value in [4] is “did not show activity”. Besides, the “activity against Candida” value with Candida albicans is “No activity”. The “cytotoxic effects against macrophages” value with J774.1 macrophages was “no cytotoxic effects”. For the same molecule, the “SR Ca2+ ATPase activity” value in [5] is recorded as “stimulate”. Besides, the “activity against Plasmodia” value with Plasmodia was “inactive”.

On to `CC/C=C/[C@H](CC)C/C=C/[C@@]1(CC)C[C@H](CC)[C@H](CC(=O)O)OO1` [plakortide M], for which the “activity against Plasmodia” value in the series on Plasmodia is on record as “active”.

For `CC/C=C/[C@H](CC)C[C@@]1(C)C[C@@H](CC)[C@@H](CC(=O)OC)OO1` [plakortin], in the series with Plasmodia, the “activity against Plasmodia” value is “active”.

As for dihydroplakortin, in the series on Plasmodia, the “activity against Plasmodia” value is “active”.

As to plakortide Q, the “activity against Plasmodia” value with Plasmodia is recorded as “active”.

The values above are taken from paper PMC4052307, “Identification of Plakortide E from the Caribbean Sponge Plakortis halichondroides as a Trypanocidal Protease Inhibitor using Bioactivity-Guided Fractionation” (Marine Drugs, 2014).
